This is an account of results in ChEMBL document CHEMBL2203203, “Structure-activity relationships of 2-arylamido-5,7-dihydro-4H-thieno[2,3-c]pyran-3-carboxamide derivatives as cannabinoid receptor agonists and their analgesic action” (Bioorg Med Chem Lett, 2012).

One test addresses Cannabinoid receptor 1 (Homo sapiens, UniProt P21554). Description: Agonist activity at human CB1 receptor after 4 hrs by luciferase reporter gene assay. Format: functional. Background: In a reporter assay the amount or activity of a reporter protein is the signal.
Test [1] has as its target T1, Cannabinoid receptor 2 (Homo sapiens, UniProt P34972). The experiment in a line: Agonist activity at human CB2 receptor after 4 hrs by luciferase reporter gene assay relative to control. The format is functional.
In test [2] the target is T1, Cannabinoid receptor 2. The experiment in a line: Agonist activity at human CB2 receptor after 4 hrs by luciferase reporter gene assay. The format is functional.
Another test is filed under the species Homo sapiens. The experiment in a line: Selectivity ratio of EC50 for human CB1 receptor to EC50 for human CB2 receptor.

Structures are written as SMILES.

T1 sequence (P34972 whole entry): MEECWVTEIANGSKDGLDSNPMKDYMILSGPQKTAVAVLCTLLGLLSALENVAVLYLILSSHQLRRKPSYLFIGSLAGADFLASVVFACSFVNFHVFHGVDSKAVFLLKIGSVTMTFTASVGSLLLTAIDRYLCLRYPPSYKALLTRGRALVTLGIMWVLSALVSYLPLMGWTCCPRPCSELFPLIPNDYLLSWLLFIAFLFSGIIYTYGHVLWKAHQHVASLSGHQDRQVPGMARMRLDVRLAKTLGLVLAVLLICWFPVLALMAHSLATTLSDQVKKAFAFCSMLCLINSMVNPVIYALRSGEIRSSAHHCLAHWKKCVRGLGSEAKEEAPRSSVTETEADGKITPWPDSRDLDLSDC
Cannabinoid receptor 1, sequence (P21554 whole entry): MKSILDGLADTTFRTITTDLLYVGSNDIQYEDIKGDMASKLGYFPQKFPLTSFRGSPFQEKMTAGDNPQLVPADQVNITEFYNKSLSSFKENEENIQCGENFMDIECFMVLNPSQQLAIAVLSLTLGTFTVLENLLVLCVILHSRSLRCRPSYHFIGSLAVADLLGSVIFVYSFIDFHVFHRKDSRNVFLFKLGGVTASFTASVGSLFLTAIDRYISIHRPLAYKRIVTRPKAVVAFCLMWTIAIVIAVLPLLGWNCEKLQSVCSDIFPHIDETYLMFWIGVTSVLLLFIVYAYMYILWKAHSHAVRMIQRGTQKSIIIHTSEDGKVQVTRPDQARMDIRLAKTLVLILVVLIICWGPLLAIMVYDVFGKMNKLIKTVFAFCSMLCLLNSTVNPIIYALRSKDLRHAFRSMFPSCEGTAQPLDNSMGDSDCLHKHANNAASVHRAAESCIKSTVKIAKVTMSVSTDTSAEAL

Turning to `O=C(Nc1sc2c(c1C(=O)N1CCOCC1)CCOC2)c1cccc(Cl)c1`, the EC50 (commonly the concentration needed to bring the measured effect to its halfway point) at Cannabinoid receptor 1 is greater than 10 µM; at Cannabinoid receptor 2 [2] it was 1.42 µM. Also, the Efficacy on Cannabinoid receptor 2 [1] is 98%.

As for `COCCNC(=O)c1c(NC(=O)C2CCCC2)sc2c1CCOC2`, the EC50 on Cannabinoid receptor 1 is greater than 10 µM; on Cannabinoid receptor 2 [2], 0.313 µM. This compound gave an Efficacy at Cannabinoid receptor 2 [1] of 84%. Besides, the Ratio EC50 in the test filed under Homo sapiens was greater than 32.

For the compound `O=C(CN1CCCC1)Nc1sc2c(c1C(=O)N1CCC(F)(F)CC1)CCCC2`, the results for the EC50 at Cannabinoid receptor 1 and on Cannabinoid receptor 2 [2] were greater than 10 µM and 0.209 µM, respectively. Besides, the Efficacy at Cannabinoid receptor 2 [1] is 87%. In the test listed under Homo sapiens, the Ratio EC50 is greater than 48.

On to `O=C(CN1CCCCC1)Nc1sc2c(c1C(=O)N1CC(F)(F)C1)CCCC2`, for which the EC50 at Cannabinoid receptor 1 is greater than 10 µM; at Cannabinoid receptor 2 [2] it was 0.056 µM. At Cannabinoid receptor 2 [1], this compound showed an Efficacy of 103%. Besides, the Ratio EC50 in the test filed under Homo sapiens was greater than 178.

`COc1ccccc1C(=O)Nc1sc2c(c1C(=O)N1CCOCC1)CCOC2`: the EC50 on Cannabinoid receptor 1 and at Cannabinoid receptor 2 [2] was greater than 10 µM throughout.

Regarding `COC1CN(C(=O)c2c(NC(=O)CN3CCCCC3)sc3c2CCCC3)C1`, the EC50 at Cannabinoid receptor 1 was greater than 10 µM; at Cannabinoid receptor 2 [2], 0.219 µM. In addition, on Cannabinoid receptor 2 [1], the Efficacy was determined as 92%. In the test filed under Homo sapiens, the Ratio EC50 is greater than 45.

`COCC(C)(C)NC(=O)c1c(NC(=O)c2ccccc2C(F)(F)F)sc2c1CCOC2`: the results for the concentration for a half-maximal effect (EC50) at Cannabinoid receptor 1 and at Cannabinoid receptor 2 [2] were greater than 10 µM and 0.041 µM, respectively. For the same compound, the Efficacy at Cannabinoid receptor 2 [1] was 93%. In addition, the Ratio EC50 in the test filed under Homo sapiens was greater than 243.

In the case of `O=C(CN1CCCC1)Nc1sc2c(c1C(=O)N1CC(F)(F)C1)CCCC2`, the EC50 on Cannabinoid receptor 1 was greater than 10 µM; at Cannabinoid receptor 2 [2], 0.394 µM. Also, the Efficacy at Cannabinoid receptor 2 [1] is 89%. Further, the Ratio EC50 in the test filed under Homo sapiens was greater than 25.

Regarding `CC(C)(C)CC(=O)Nc1sc2c(c1C(=O)N1CCC(F)(F)CC1)C(C)(C)CC2`, the figures for the half-maximal effective concentration (EC50) on Cannabinoid receptor 1 and on Cannabinoid receptor 2 [2] were greater than 10 µM and 0.129 µM, respectively. This compound came in with an Efficacy on Cannabinoid receptor 2 [1] of 96%. In addition, the Ratio EC50 in the test listed under Homo sapiens was greater than 77.

For the compound `COCCNC(=O)c1c(NC(=O)c2ccccc2Cl)sc2c1CCC2`, the EC50 is greater than 10 µM at Cannabinoid receptor 1 and 0.137 µM at Cannabinoid receptor 2 [2]. At Cannabinoid receptor 2 [1], the Efficacy amounted to 52%. For the same compound, in the test filed under Homo sapiens, the Ratio EC50 is greater than 72.

With `O=C(Nc1sc2c(c1C(=O)NCC1CC1)CCC2)c1ccccc1Cl`, the figures for the EC50 at Cannabinoid receptor 1 and on Cannabinoid receptor 2 [2] were greater than 10 µM and 0.106 µM, respectively. In addition, the Efficacy on Cannabinoid receptor 2 [1] amounted to 76%. Further, the Ratio EC50 in the test listed under Homo sapiens was greater than 94.

For `CC(C)(C)C(=O)c1c(NC(=O)c2ccccc2C(F)(F)F)sc2c1CCOC2`, the half-maximal effective concentration (EC50) on Cannabinoid receptor 1 is greater than 10 µM; on Cannabinoid receptor 2 [2], 0.897 µM. Also, on Cannabinoid receptor 2 [1], the Efficacy is 88%. Further, in the test listed under Homo sapiens, the Ratio EC50 is greater than 11.

For the compound `O=C(Nc1sc2c(c1C(=O)N1CCOCC1)CCOC2)c1cccc(OC(F)(F)F)c1`, the EC50 is greater than 10 µM at Cannabinoid receptor 1 and 0.749 µM at Cannabinoid receptor 2 [2]. The compound further displayed an Efficacy at Cannabinoid receptor 2 [1] of 77%. In addition, the Ratio EC50 in the test filed under Homo sapiens is greater than 10.

Consider `COCC(C)(C)NC(=O)c1c(NC(=O)c2ccccc2OC(F)(F)F)sc2c1CCOC2`, for which the EC50 on Cannabinoid receptor 1 is greater than 10 µM; on Cannabinoid receptor 2 [2] it was 0.101 µM. For the same compound, at Cannabinoid receptor 2 [1], the Efficacy was 81%. Besides, the Ratio EC50 in the test listed under Homo sapiens is greater than 100.

With `COCCNC(=O)c1c(NC(=O)c2ccccc2OC(F)(F)F)sc2c1CCC(F)(F)C2`, the EC50 is greater than 10 µM at Cannabinoid receptor 1 and 0.063 µM on Cannabinoid receptor 2 [2]. On Cannabinoid receptor 2 [1], this compound showed an Efficacy of 96%. Further, the Ratio EC50 in the test filed under Homo sapiens is greater than 145.

On to `O=C(Nc1sc2c(c1C(=O)N1CCOCC1)CCOC2)c1ccc(Cl)cc1Cl`, for which the values for the half-maximal effective concentration (EC50) on Cannabinoid receptor 1 and at Cannabinoid receptor 2 [2] were greater than 10 µM and 9.35 µM, respectively. The compound also had an Efficacy on Cannabinoid receptor 2 [1] of 108%.

Regarding `O=C(Nc1sc2c(c1C(=O)O)CCOC2)c1ccccc1Cl`, the EC50 at Cannabinoid receptor 1 and on Cannabinoid receptor 2 [2] was greater than 10 µM each time.

For `O=C(Nc1sc2c(c1C(=O)N1CCOCC1)CCOC2)c1ccc(Cl)cc1`, the EC50 on Cannabinoid receptor 1 and on Cannabinoid receptor 2 [2] was greater than 10 µM in each case.

With `O=C(Nc1sc2c(c1C(=O)N1CCOCC1)CCOC2)c1ccccc1-c1ccccc1`, the EC50 at Cannabinoid receptor 1 was greater than 10 µM; on Cannabinoid receptor 2 [2], 7.89 µM. This compound displayed an Efficacy on Cannabinoid receptor 2 [1] of 63%.
